Data reported in ChEMBL document CHEMBL1201862, “PubChem BioAssay data set” (2004).
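Method: 48-hour compound exposure of cells in 96-well plates, five concentrations, linear interpolation of endpoints. GI50 is the concentration that inhibits growth by half.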 Calls of active or inactive are those of the source. Cut-off read from the data, not from the text of the source: active = GI50 up to about 1.1 µM and inactive = higher.

Columns and labels:
Test in all cases: inhibition of tumour cell growth, NCI panel, 48 h
K562 = tested on: K562
PC-3 = tested on: PC-3
TK-10 = tested on: TK-10
SF-539 = tested on: SF-539
HCT-15 = tested on: HCT-15
ACHN = tested on: ACHN
OVCAR-5 = tested on: OVCAR-5
HCC 2998 = tested on: HCC 2998
M14 = tested on: M14
COLO 205 = tested on: COLO 205
SNB-75 = tested on: SNB-75
U-251 = tested on: U-251
UACC-62 = tested on: UACC-62
A498 = tested on: A498
SK-MEL-5 = tested on: SK-MEL-5
BT-549 = tested on: BT-549
RPMI-8226 = tested on: RPMI-8226
NCI-H23 = tested on: NCI-H23
UACC-257 = tested on: UACC-257
RXF 393 = tested on: RXF 393

| SMILES | GI50 (K562) | GI50 (PC-3) | GI50 (TK-10) | GI50 (SF-539) | GI50 (HCT-15) | GI50 (ACHN) | GI50 (OVCAR-5) | GI50 (HCC 2998) | GI50 (M14) | GI50 (COLO 205) | GI50 (SNB-75) | GI50 (U-251) | GI50 (UACC-62) | GI50 (A498) | GI50 (SK-MEL-5) | GI50 (BT-549) | GI50 (RPMI-8226) | GI50 (NCI-H23) | GI50 (UACC-257) | GI50 (RXF 393) |
| --- | --- | --- | --- | --- | --- | --- | --- | --- | --- | --- | --- | --- | --- | --- | --- | --- | --- | --- | --- | --- |
| O=C1C=C(Nc2nc(O)cc(C(=O)O)n2)c2ccccc2C1=O | > 100 µM (inactive) | > 100 µM (inactive) | > 100 µM (inactive) | > 100 µM (inactive) | > 100 µM | > 100 µM (inactive) | > 100 µM (inactive) | > 100 µM (inactive) | > 100 µM (inactive) | > 100 µM (inactive) | > 100 µM (inactive) | > 100 µM (inactive) | > 100 µM (inactive) | > 100 µM (inactive) | > 100 µM (inactive) | > 100 µM (inactive) | > 100 µM (inactive) | > 100 µM (inactive) | > 100 µM (inactive) | > 100 µM (inactive) |
| COC(=O)C1=C(C(=O)OC)C2OC1c1cc3ccccc3cc12 | – | 15.2 µM (inactive) | 5.2 µM (inactive) | 6.27 µM (inactive) | 2.18 µM | 1.63 µM (inactive) | 4.88 µM (inactive) | 6.34 µM (inactive) | 2.1 µM (inactive) | 1.82 µM (inactive) | 23.3 µM (inactive) | 17.3 µM (inactive) | 14.5 µM (inactive) | 21.1 µM (inactive) | 16.9 µM (inactive) | 5.47 µM (inactive) | 2.33 µM (inactive) | 5.96 µM (inactive) | 6.32 µM (inactive) | 1.77 µM (inactive) |
| CC(C)=CCC[C@@H](C)c1c2nc3ccccc3sc-2c(C)c(=O)c1O | 8.22 µM (inactive) | 8.34 µM (inactive) | 12.8 µM (inactive) | 3.01 µM (inactive) | 2.32 µM | 2.65 µM (inactive) | 16.7 µM (inactive) | 9.66 µM (inactive) | 4.75 µM (inactive) | 18.8 µM (inactive) | 5.53 µM (inactive) | 6.38 µM (inactive) | 4.99 µM (inactive) | 9.84 µM (inactive) | 3.1 µM (inactive) | 31 µM (inactive) | 4.11 µM (inactive) | 5.93 µM (inactive) | 14.3 µM (inactive) | 9.35 µM (inactive) |
| C[C@H](CCC1=NCCN1)[C@H]1CC[C@H]2[C@@H]3[C@H](O)C[C@@H]4C[C@H](O)CC[C@]4(C)[C@H]3CC[C@]12C | 6.3 µM (inactive) | 8.85 µM (inactive) | 13.8 µM (inactive) | 12.9 µM (inactive) | 16.5 µM | 16.4 µM (inactive) | 14.5 µM (inactive) | 15.2 µM (inactive) | 15.3 µM (inactive) | 8.57 µM (inactive) | 10.6 µM (inactive) | 12.8 µM (inactive) | 11.4 µM (inactive) | 13.3 µM (inactive) | 11.8 µM (inactive) | 12.3 µM (inactive) | 14.7 µM (inactive) | 14.3 µM (inactive) | 15 µM (inactive) | 15.8 µM (inactive) |
| O=C(C(=O)n1ccc2ccccc21)n1ccc2ccccc21 | 71.4 µM (inactive) | > 100 µM (inactive) | > 100 µM (inactive) | 37 µM (inactive) | > 100 µM | > 100 µM (inactive) | > 100 µM (inactive) | > 100 µM (inactive) | – | > 100 µM (inactive) | 10.7 µM (inactive) | 63.4 µM (inactive) | 57.9 µM (inactive) | > 100 µM (inactive) | > 100 µM (inactive) | > 100 µM (inactive) | > 100 µM (inactive) | 75.3 µM (inactive) | > 100 µM (inactive) | 88.7 µM (inactive) |
| CCc1ccccc1NNc1cc(=O)[nH]c(=O)[nH]1 | 27 µM (inactive) | 16.6 µM (inactive) | > 10 µM (inactive) | 22.6 µM (inactive) | – | 16.9 µM (inactive) | 22 µM (inactive) | 16.6 µM (inactive) | 18.5 µM (inactive) | 18 µM (inactive) | 17.7 µM (inactive) | 17.4 µM (inactive) | 19.6 µM (inactive) | 21.2 µM (inactive) | 17.3 µM (inactive) | 19.4 µM (inactive) | 8.2 µM (inactive) | 34.8 µM (inactive) | 18.5 µM (inactive) | 22.2 µM (inactive) |
| CCC1=CC2Cc3nc4cc(Cl)ccc4c(N)c3C(C1)C2 (configuration not stated) | 2.58 µM (inactive) | 4.47 µM (inactive) | 4.38 µM (inactive) | 9.27 µM (inactive) | 7.21 µM | 7.8 µM (inactive) | 5.62 µM (inactive) | 1.51 µM (inactive) | 1.54 µM (inactive) | 2.07 µM (inactive) | 6.35 µM (inactive) | 8.59 µM (inactive) | 6.04 µM (inactive) | 4.86 µM (inactive) | 1.57 µM (inactive) | 15.5 µM (inactive) | 2.03 µM (inactive) | 5.52 µM (inactive) | 2.11 µM (inactive) | 2.65 µM (inactive) |
